According to patent US9388164B2, “Methods of using pyruvate kinase activators” (AGIOS PHARMACEUTICALS, INC, priority 2011, dated 2016):

Key:
Assay type in all cases: biochemical
PKR wt = PKR wt (Homo sapiens, UniProt P30613); assay: PKR WT Single Point Percent Activation Assay; settings: compound at 1 μM
Experimental: PKR WT Single Point Percent Activation Assay
(§1) A compound described herein was diluted with DMSO and tested at 1 μM concentration. The enzyme was diluted in 1× Buffer: (100 mM KCl, 50 mM Tris 7.5, 5 mM MgCl2, 1 mM DTT, 0.03% BSA). 2 μL of compound solution was first added into wells, and then 180 μL of enzyme solution was added. Assays were assembled except for ADP, and plates were stored for 60 minutes at RT. 20 μL ADP was added to start the assay and assay output was evaluated using OD340 at SpectraMax. The assay was run at room temperature.
PKR wt (100 ng/well), Tris pH 7.5 (50 mM), KCl (100 mM), MgCl2 (5 mM), ADP (0.48 mM), PEP (0.15 mM), NADH (180 μM), LDH (0.5 units, Sigma 59023), DTT (1 mM) and BSA (0.03%).

PKR R510Q [1] = target: T1, PKR R510Q (Homo sapiens, UniProt P30613, R510Q); assay: PKR R510Q Single Point Percent Activation Assay; settings: compound at 1 μM; for activation at 1 µM: read-out: % Act. R510Q
Experimental: PKR R510Q Single Point Percent Activation Assay
as §1
PKR R510Q (40 ng/well), Tris pH 7.5 (50 mM), KCl (100 mM), MgCl2 (5 mM), ADP (0.2 mM), PEP (0.11 mM), NADH (180 μM), LDH (0.5 units, Sigma 59023), DTT (1 mM) and BSA (0.03%).

PKR T384W [2] = target: T2, PKR T384W (Homo sapiens, UniProt P30613); assay: PKR T384W Single Point Percent Activation Assay; settings: compound at 1 μM
Experimental: PKR T384W Single Point Percent Activation Assay
as §1, with “180 μL enzyme solution” for “180 μL of enzyme solution”
PKR T384W soluble (300 ng/well), Tris pH 7.5 (50 mM), KCl (100 mM), MgCl2 (5 mM), ADP (0.08 mM), PEP (0.23 mM), NADH (180 μM), LDH (0.5 units, Sigma 59023), DTT (1 mM) and BSA (0.03%).

wild type PKR = wild type PKR (Homo sapiens, UniProt P30613); assay: PKR assay, AC50 (wild type); settings: read-out: PKR WT AC50
Experimental: (§2) • PKR or PKR mutant enzyme solution was diluted in assay buffer. • 2 μL of test compound was added into wells first, and then 180 μL reaction mix was added. • Reactions mixture with test compound was assembled except for ADP, and plates were stored for 60 minutes at room temperature. • 20 uL ADP was added to start reaction at room temperature and reaction progress was measured as changes in absorbance at 340 nm wavelength at room temperature.
(§3) Test Compound Preparation: • Test compound stock was made at 100× concentration in 100% DMSO (10 mM) • 1 to 3 dilutions were made for 11 points (i.e. 50 μl of first concentration added to 100 μl 100% DMSO to yield 3.33 mM, 50 μl of this added to 100 μl DMSO to yield 1.11 mM, and so forth) • 1 to 100 dilution into assay (2 μl in 200 μl) yielded starting concentration of 100 μM, decreasing 3 fold for 11 points.

PKR R532W [3] = target: T3, PKR R532W (Homo sapiens, UniProt P30613, R532W); assay: PKR R532W Single Point Percent Activation Assay; settings: compound at 1 μM; for activation at 1 µM: read-out: % Act. R532W
Experimental: PKR R532W Single Point Percent Activation Assay
as §1
PKR R532W (100 ng/well), Tris pH 7.5 (50 mM), KCl (100 mM), MgCl2 (5 mM), ADP (0.36 mM), PEP (0.1 mM), NADH (180 μM), LDH (0.5 units, Sigma 59023), DTT (1 mM) and BSA (0.03%).

PKR T384W [4] = target: T2, PKR T384W; assay: PKR Mutant Assay, AC50 (T384W)
Experimental: as §2, §3

PKR R510Q [5] = target: T1, PKR R510Q; assay: PKR Mutant Assay, AC50 (R510Q)
Experimental: as §2, §3

PKR R532W [6] = target: T3, PKR R532W; assay: PKR Mutant Assay, AC50 (R532W)
Experimental: as §2, §3

PKR R479H = PKR R479H (Homo sapiens, UniProt P30613, R479H); assay: PKR Mutant Assay, AC50 (R479H)
Experimental: as §2, §3

PKR G364D = PKR G364D (Homo sapiens, UniProt P30613, G364D); assay: PKR Mutant Assay, AC50 (G364D)
Experimental: as §2, §3

T2 sequence (P30613 whole entry T384M): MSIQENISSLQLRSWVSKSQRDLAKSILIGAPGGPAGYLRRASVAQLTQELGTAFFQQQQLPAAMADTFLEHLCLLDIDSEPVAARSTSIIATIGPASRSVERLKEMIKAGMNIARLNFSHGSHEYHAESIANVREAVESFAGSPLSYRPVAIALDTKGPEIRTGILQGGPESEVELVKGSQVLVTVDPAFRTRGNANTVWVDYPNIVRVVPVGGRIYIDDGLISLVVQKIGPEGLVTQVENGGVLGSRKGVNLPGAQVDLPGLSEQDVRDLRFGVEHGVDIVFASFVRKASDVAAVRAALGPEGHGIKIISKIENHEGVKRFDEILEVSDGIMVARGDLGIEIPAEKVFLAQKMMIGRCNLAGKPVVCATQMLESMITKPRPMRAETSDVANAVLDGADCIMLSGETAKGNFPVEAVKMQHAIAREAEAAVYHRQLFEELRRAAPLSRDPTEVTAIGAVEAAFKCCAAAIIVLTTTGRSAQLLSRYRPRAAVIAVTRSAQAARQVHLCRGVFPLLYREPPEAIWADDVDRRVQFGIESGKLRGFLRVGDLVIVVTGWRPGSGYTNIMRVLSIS
T3 sequence (P30613 whole entry R532W): as the sequence (P30613 whole entry T384M) above, with M384T, R532W counted along it
T1 sequence (P30613 whole entry R510Q): as the sequence (P30613 whole entry T384M) above, with M384T, R510Q counted along it
Chain of PKR wt (P30613 whole entry): as the sequence (P30613 whole entry T384M) above, with M384T counted along it
Chain of wild type PKR (P30613 whole entry): as the sequence (P30613 whole entry T384M) above, with M384T counted along it
Chain of PKR R479H (P30613 whole entry R479H): as the sequence (P30613 whole entry T384M) above, with M384T, R479H counted along it
Chain of PKR G364D (P30613 whole entry G364D): as the sequence (P30613 whole entry T384M) above, with G364D, M384T counted along it

SMILES | % Act. T384W (PKR T384W [2]) | AC50 (wild type PKR) | AC50 (PKR T384W [4]) | AC50 (PKR R510Q [5]) | AC50 (PKR R532W [6]) | other results
Cc1cc(C(=O)N2CC(Oc3ccccc3)C2)ccc1NS(=O)(=O)c1cccc2cccnc12 [drawing 10] | A (a % activation at 1 μM of from 1 to 100) | < 0.1 µM | – | – | – | activation at 1 µM (PKR wt): 1 to 100%; activation at 1 µM (PKR R510Q [1]): 101 to 500%; activation at 1 µM (PKR R532W [3]): 1 to 100%
O=C(c1ccc(NS(=O)(=O)c2cccc3cccnc23)cc1)N1CC(OCc2ccccc2)C1 [drawing 12] | B (a % activation at 1 μM of from 101 to 500) | 0.101 to 0.5 µM | – | – | – | activation at 1 µM (PKR wt): 101 to 500%; activation at 1 µM (PKR R510Q [1]): 101 to 500%; activation at 1 µM (PKR R532W [3]): 101 to 500%
O=C(NC1CN(C(=O)c2ccc(NS(=O)(=O)c3cccc4cccnc34)cc2)C1)c1ccccn1 [drawing 15] | B (a % activation at 1 μM of from 101 to 500) | > 0.5 µM | – | – | – | Act. % WT (PKR wt): B (a % activation at 1 μM of from 101 to 500); % Act. R510Q (PKR R510Q [1]): B (a % activation at 1 μM of from 101 to 500); % Act. R532W (PKR R532W [3]): B (a % activation at 1 μM of from 101 to 500)
O=C(c1ccc(NS(=O)(=O)c2cccc3cccnc23)c(F)c1)N1CC(Nc2ccccc2)C1 [drawing 22] | B (a % activation at 1 μM of from 101 to 500) | > 0.5 µM | – | – | – | activation at 1 µM (PKR wt): 101 to 500%; activation at 1 µM (PKR R510Q [1]): 101 to 500%; activation at 1 µM (PKR R532W [3]): 101 to 500%
O=C(c1ccc(NS(=O)(=O)c2cccc3cccnc23)cc1)N1CC(O)(c2ccccc2)C1 [drawing 40] | B (a % activation at 1 μM of from 101 to 500) | 0.101 to 0.5 µM | – | – | – | activation at 1 µM (PKR wt): 101 to 500%; activation at 1 µM (PKR R510Q [1]): 101 to 500%; activation at 1 µM (PKR R532W [3]): 101 to 500%
COc1ccccc1OC1CN(C(=O)c2ccc(NS(=O)(=O)c3cccc4cccnc34)c(C)c2)C1 [drawing 63] | A (a % activation at 1 μM of from 1 to 100) | < 0.1 µM | – | – | – | activation at 1 µM (PKR wt): 101 to 500%; activation at 1 µM (PKR R510Q [1]): 101 to 500%; activation at 1 µM (PKR R532W [3]): 101 to 500%
O=C(c1ccc(NS(=O)(=O)c2cccc3cccnc23)cc1)N1CC(Oc2ccccc2)C1 [drawing 70] | – | – | 0.101 to 0.5 µM | > 0.5 µM | < 0.1 µM | –
O=C(c1ccc(NS(=O)(=O)c2cccc3cccnc23)cc1)N1CC(O)(Cc2ccccc2)C1 [drawing 71] | – | – | < 0.1 µM | 0.101 to 0.5 µM | < 0.1 µM | AC50 (PKR R479H): < 0.1 µM; AC50 (PKR G364D): 0.101 to 0.5 µM
Cc1cc(C(=O)N2CC(NC(=O)c3ccccn3)C2)ccc1NS(=O)(=O)c1cccc2cccnc12 [drawing 73] | – | – | 0.101 to 0.5 µM | > 0.5 µM | 0.101 to 0.5 µM | –
Cc1cc(C(=O)N2CC(Oc3ccccc3)C2)ccc1NS(=O)(=O)c1cccc2cccnc12 [drawing 76] | – | – | < 0.1 µM | 0.101 to 0.5 µM | < 0.1 µM | –
O=C(c1ccc(NS(=O)(=O)c2cccc3cccnc23)cc1)N1CC(OCc2ccccc2)C1 [drawing 78] | – | – | 0.101 to 0.5 µM | – | 0.101 to 0.5 µM | –
O=C(NC1CN(C(=O)c2ccc(NS(=O)(=O)c3cccc4cccnc34)cc2)C1)c1ccccn1 [drawing 81] | – | – | > 0.5 µM | – | > 0.5 µM | –
O=C(c1ccc(NS(=O)(=O)c2cccc3cccnc23)c(F)c1)N1CC(Nc2ccccc2)C1 [drawing 88] | – | – | > 0.5 µM | > 0.5 µM | > 0.5 µM | –
O=C(c1ccc(NS(=O)(=O)c2cccc3cccnc23)cc1)N1CC(O)(c2ccccc2)C1 [drawing 106] | – | – | 0.101 to 0.5 µM | > 0.5 µM | 0.101 to 0.5 µM | AC50 (PKR R479H): > 0.5 µM; AC50 (PKR G364D): > 0.5 µM
Cc1cc(C(=O)N2CC(Nc3ccccn3)C2)ccc1NS(=O)(=O)c1cccc2cccnc12 [drawing 121] | – | – | – | 0.101 to 0.5 µM | – | –
COc1ccccc1OC1CN(C(=O)c2ccc(NS(=O)(=O)c3cccc4cccnc34)c(C)c2)C1 [drawing 129] | – | – | < 0.1 µM | > 0.5 µM | < 0.1 µM | –
O=C(Nc1ccccn1)OC1CN(C(=O)c2ccc(NS(=O)(=O)c3cccc4cccnc34)cc2)C1 [drawing 131] | – | – | – | > 0.5 µM | – | –
